Series [1] concerns Nucleic Acid. The experiment in a line: Binding affinity to poly A-poly U RNA assessed as biphasic transitions of change in melting temperature at compound to DNA molar ratio of 0.3 at pH 5 by thermal denaturation assay. Format: nucleic-acid assay.
For series [2], the system named is Nucleic Acid. The experiment in a line: Binding affinity to poly A-poly U RNA at compound to DNA molar ratio of 0.1 to 0.5 at pH 7 by circular dichroism. Format: nucleic-acid assay.
Series [3] concerns Nucleic Acid. The experiment in a line: Binding affinity to poly A-poly U RNA assessed as melting temperature at compound to DNA molar ratio of 0.3 at pH 5 by thermal denaturation assay. Format: nucleic-acid assay.
The test system of series [4] is Nucleic Acid. In words: Binding affinity to poly A-poly U RNA assessed as change in melting temperature at compound to DNA molar ratio of 0.3 at pH 7 by thermal denaturation assay. Format: nucleic-acid assay.
In series [5] the test system is Nucleic Acid. In words: Binding affinity to poly A-poly U RNA at compound to DNA molar ratio of 0.1 to 0.5 at pH 5 by circular dichroism. Format: nucleic-acid assay. (In general: CD spectra are sensitive to the conformation of chiral molecules.)
The test system of series [6] is Nucleic Acid. In words: Binding affinity to poly A-poly U RNA assessed as biphasic transitions of melting temperature at compound to DNA molar ratio of 0.3 at pH 5 by thermal denaturation assay. Format: nucleic-acid assay.
Series [7] relates to Nucleic Acid. In words: Binding affinity to poly dA-poly dT RNA in citric acid buffer at pH 5 by fluorescence titration assay relative to control. Format: nucleic-acid assay.
The test system of series [8] is Calf thymus DNA. The experiment in a line: Binding affinity to calf thymus DNA in citric acid buffer at pH 5 by UV-v titration assay. Format: nucleic-acid assay. As to conditions: Bos taurus.
For series [9], the system named is Nucleic Acid. The experiment in a line: Binding affinity to UMP in sodium cacodylate buffer at pH 7 by fluorescence titration assay relative to control. Format: nucleic-acid assay.
Series [10] deals with Nucleic Acid. In words: Binding affinity to poly A-poly U RNA at compound to DNA molar ratio of 0.1 to 0.4 at pH 5 by circular dichroism. Format: nucleic-acid assay.
Series [11] deals with Nucleic Acid. The experiment in a line: Binding affinity to poly A-poly U RNA assessed as biphasic transitions of melting temperature at compound to DNA molar ratio of 0.2 at pH 5 by thermal denaturation assay. Format: nucleic-acid assay.
Series [12] deals with Calf thymus DNA. The experiment in a line: Binding affinity to calf thymus DNA assessed as change in melting temperature at compound to DNA molar ratio of 0.3 at pH 7 by thermal denaturation assay. Format: nucleic-acid assay. As to conditions: Bos taurus.
The subject of series [13] is Caco-2. The experiment in a line: Cytotoxicity against human Caco-2 cells at 0.1 to 100 uM after 72 hrs by MTT assay. Format: functional, cell-based. In general terms: Formazan colour is commonly taken as a measure of viable cells.
The subject of series [14] is MIA PaCa-2. In words: Cytotoxicity against human MIAPaCa2 cells at 100 uM after 72 hrs by MTT assay. Format: functional. As to conditions: MIA PaCa-2, 72 h.
Series [15] deals with Nucleic Acid. In words: Binding affinity to GMP in sodium cacodylate buffer at pH 7 by fluorescence titration assay relative to control. Format: nucleic-acid assay.
Series [16] concerns Nucleic Acid. In words: Binding affinity to […] in citric acid buffer at pH 5 by UV-v titration assay. Format: nucleic-acid assay.
Series [17] concerns Nucleic Acid. In words: Binding affinity to poly dA-poly dT RNA in sodium cacodylate buffer at pH 7 by fluorescence titration assay. Format: nucleic-acid assay.
Series [18] deals with Nucleic Acid. In words: Binding affinity to poly dA-poly dT RNA in citric acid buffer at pH 5 by fluorescence titration assay. Format: nucleic-acid assay.
For series [19], the system named is Nucleic Acid. In words: Binding affinity to GMP in citric acid buffer at pH 5 by fluorescence titration assay relative to control. Format: nucleic-acid assay.
In series [20] the test system is Nucleic Acid. The experiment in a line: Binding affinity to […] assessed as melting temperature at compound to DNA molar ratio of 0.2 at pH 7 by thermal denaturation assay. Format: nucleic-acid assay.
In series [21] the test system is Nucleic Acid. The experiment in a line: Binding affinity to […] assessed as change in melting temperature at compound to DNA molar ratio of 0.3 at pH 5 by thermal denaturation assay. Format: nucleic-acid assay.
Series [22] concerns Nucleic Acid. In words: Binding affinity to poly G-poly C RNA in sodium cacodylate buffer at pH 7 by UV-v titration assay. Format: nucleic-acid assay.
For series [23], the system named is Nucleic Acid. The experiment in a line: Binding affinity to poly A-poly U RNA assessed as change in melting temperature at compound to DNA molar ratio of 0.3 at pH 5 by thermal denaturation assay. Format: nucleic-acid assay.
For series [24], the system named is Calf thymus DNA. The experiment in a line: Binding affinity to calf thymus DNA at compound to DNA molar ratio of 0.1 to 0.5 at pH 7 by circular dichroism. Format: nucleic-acid assay. To be noted: Bos taurus.
Series [25] has as its system Nucleic Acid. In words: Binding affinity to poly A-poly U RNA in sodium cacodylate buffer at pH 7 by UV-v titration assay. Format: nucleic-acid assay.
Series [26] deals with Nucleic Acid. In words: Binding affinity to poly A-poly U RNA in citric acid buffer at pH 5 by UV-v titration assay. Format: nucleic-acid assay.
Series [27] deals with HEp-2. The experiment in a line: Cytotoxicity against human Hep2 cells at 10 to 100 uM after 72 hrs by MTT assay. Format: functional, cell-based.
Series [28] deals with MIA PaCa-2. In words: Drug uptake in human MIAPaCa2 cells at 1 mM after 10 mins using DAPI staining by fluorescence microscopy analysis. To be noted: mia paca-2, 10 min, 1000 µM. Format: ADME, cell-based.
In series [29] the test system is HeLa. The experiment in a line: Drug uptake in human HeLa cells at 1 mM after 10 mins using DAPI staining by fluorescence microscopy analysis. Format: ADME, cell-based. To be noted: 1000 µM.
Series [30] concerns MIA PaCa-2. The experiment in a line: Cytotoxicity against human MIAPaCa2 cells at 10 to 100 uM after 72 hrs by MTT assay. Format: functional, cell-based.
For series [31], the system named is Caco-2. The experiment in a line: Cytotoxicity against human Caco-2 cells at 10 to 100 uM after 72 hrs by MTT assay. Format: functional, cell-based.
The subject of series [32] is HT-29. In words: Cytotoxicity against human HT-29 cells at 10 to 100 uM after 72 hrs by MTT assay. Format: functional, cell-based.
The test system of series [33] is Nucleic Acid. The experiment in a line: Binding affinity to poly G-poly C RNA in citric acid buffer at pH 5 by UV-v titration assay. Format: nucleic-acid assay.
Series [34] concerns HeLa. In words: Cytotoxicity against human HeLa cells at 10 to 100 uM after 72 hrs by MTT assay. Format: functional, cell-based.

Active and inactive are the calls of the source. The calls are words filed in the database; no cut-off is given here.

For `Cc1c2cc(NC(=O)NCCNC(=O)Nc3ccc4c(c3)c(C)[n+](C)c3ccccc43)ccc2c2ccccc2[n+]1C.O=S(=O)([O-])O.O=S(=O)([O-])O`, the ΔTm was -0.4 °C in series [1]; 0 °C in [4]; 3.8 °C in [12]; 10.7 °C in [21]; 1.9 °C in series [23]. In addition, the outcome in series [2], in series [5], in series [10] and in series [13] was Active. The midpoint of thermal melting (Tm) in series [3] came to 83.8 °C; in [6] it was 31.1 °C; in series [11] it was 30.7 °C; in series [20], 70.2 °C. Besides, the RFU was found to be 56 in [7], 62.5 in [9], 34.2 in [15] and 23.5 in series [19]. The log Ks worked out at 6 in [8]; 5.2 in [16]; 5.3 in [17]; 6.1 in series [18]; 5.2 in series [22]. Also, the inhibition at 100 µM in [14] was determined as 35%.

For the compound `Cc1c2cc(NC(=O)NCCCCCCCCCNC(=O)Nc3ccc4c(c3)c(C)[n+](C)c3ccccc43)ccc2c2ccccc2[n+]1C.O=S(=O)([O-])O.O=S(=O)([O-])O`, the ΔTm is -1.6 °C in [1]; 2.1 °C in [4]; 5.8 °C in series [12]; 7.7 °C in series [21]; 1.9 °C in [23]. For the same compound, the result in [2], in [24] and in [5] was Active. For the same compound, the melting temperature (Tm) in series [3] turned out to be 82.6 °C; in [6] it was 31.1 °C; in [11], 31 °C; in series [20] it was 69.1 °C. Further, the RFU in [7] is 2.3; in series [9], 1.02; in series [15] it was -16.7; in series [19] it was -7.2. Also, the result in series [13] was inactive. The compound also came in with an inhibition at 100 µM in series [14] of 26.8%. For the same compound, the log Ks in [25] worked out at 5.1; in series [17], 5.6; in series [26] it was 5.4; in series [18], 6.6; in series [22], 5.8.

Consider `Cc1c2cc(NC(=O)NCCCCCCNC(=O)Nc3ccc4c(c3)c(C)[n+](C)c3ccccc43)ccc2c2ccccc2[n+]1C.O=S(=O)([O-])O.O=S(=O)([O-])O`, for which the outcome in series [27], in series [30], in series [31], in series [32] and in series [34] was inactive. Besides, the Drug uptake result in series [28] and in series [29] was “Active” each time. In addition, the result in [2], in series [5], in series [10] and in [13] was Active. Further, the figures for the shift in melting temperature (ΔTm) in [4], in series [12] and in [21] were 0 °C, 5.5 °C and 10.4 °C, respectively. Also, the RFU in series [7] came to 24; in series [9] it was 3.5; in series [15], 6.3; in series [19] it was 31.6. The log Ks in series [8] came to 5.4; in series [17] it was 5.3; in [26], 4.5; in series [18], 6.1; in [33], 5.1. In addition, the Tm in series [11] amounted to 31.4 °C; in series [20], 70.1 °C. This compound also gave an inhibition at 100 µM in series [14] of 43.1%.

What is called ΔTm is the shift of the melting midpoint relative to a reference. The Tm is the temperature at the midpoint of the melting transition. For orientation: inhibition means the percentage by which the read-out fell short of the control.

These data come from ChEMBL document CHEMBL1208667, “Permanent positive charge strongly influences DNA/RNA binding and antiproliferative activity of urea-phenanthridinium conjugates” (Eur J Med Chem, 2010).
